Consider three compounds from US5550249A, “Water soluble derivatives of biotin and related therapeutical compositions” (Lifegroup, S.p.A., priority 1991, dated 1996).

SMILES strings stand for the structures. Read-outs that look alike come from different tables or passages of the source.

Data set [1] is described as follows: Partition in water/octanol (14C-biotin, scintillation counting). The data set is classed as physicochemical. As to the method:
^14 C-biotin (53000 dpm) was used admixed with cool biotin (0.25 mmol) in 5 ml of twice distilled water, in the presence and in the absence of ethanolamine (3 μl), then adding 5 ml of octanol and stirring (1 minute by means of a stirrer VORTEX). After separation of the phases the radioactivity was measured by scintillation (Beckman counter) in 1 ml of sample. The amount of ^14 C-biotin transferred into the octanolic phase was 14443 dpm in the absence of ethanolamine and 82 dpm in the presence of ethanolamine.
This confirms the increase in solubility in the aqueous phase, which is a consequence of the salification.

Data set [2] in a line: Water solubility. The data set is classed as physicochemical. The following applies: salts of biotin with an aminoalcohol.
A short description of data set [3]: Solubility in cold ethanol. The data set is classed as physicochemical.
For data set [4] the following is noted: cited from earlier work.
The test system of data set [5] is vitamin H deficiency. The following applies: cited from earlier work.
The test system of data set [6] is carboxylase enzymes deficiency. The following applies: cited from earlier work.
Data set [7] has as its system seborrheal dermatitis of the newborn. The following applies: cited from earlier work.
Data set [8] deals with diabetes. The following applies: cited from earlier work.
The test system of data set [9] is peripheral neuropathies having diabetic origin. The following applies: human beings; cited from earlier work.
In data set [10] the test system is glucokinase. The following applies: recent studies; cited from earlier work.
The subject of data set [11] is insulin. The following applies: recent studies; cited from earlier work.
[12] abbreviates: water/octanol, average of 3 tests.

As to `O=C(O)CCCC[C@@H]1SC[C@@H]2NC(=O)N[C@@H]21` [Ethanolamine biotinate, ethanolamine biotinate], in data set [1] (pH 4, average of 3 tests), the “H2O (dpm)” value worked out at 32148 dpm, the H2O/octanol is 2.6 and the “octanol (dpm)” value was 12300 dpm. For the same compound, in [1] (setting [12]), the “H2O (dpm)” value worked out at 36664 dpm, the H2O/octanol is recorded as 447.1 and the “octanol (dpm)” value is on record as 82 dpm. The “water solubility (in words)” value in data set [2] is recorded as “completely water soluble”. The “solubility in cold ethanol (in words)” value in data set [3] is “rather soluble in cold ethanol”.
For `O=C(O)CCCC[C@@H]1SC[C@@H]2NC(=O)N[C@@H]21` [^14 C-biotin], in [1] (aqueous phase brought to pH 4, in the absence of ethanolamine), the “change of amount of 14C-biotin transferred into the octanolic phase” value was “always remains the same”. Further, the “increase of amount of 14C-biotin transferred into the octanolic phase” value in [1] (aqueous phase brought to pH 4, in the presence of ethanolamine) is recorded as 170 times. In addition, the “amount of 14C-biotin transferred into the octanolic phase” value in data set [1] (in the absence of ethanolamine) is on record as 14443 dpm; in data set [1] (in the presence of ethanolamine (3 μl)), 82 dpm.
As to `O=C(O)CCCC[C@@H]1SC[C@@H]2NC(=O)N[C@@H]21` [Biotin, biotin], in [1] (pH 4, average of 3 tests), the “H2O (dpm)” value was found to be 40769 dpm, the H2O/octanol is on record as 2.9 and the “octanol (dpm)” value came to 13991 dpm. Further, in data set [1] (setting [12]), the “H2O (dpm)” value is 40940 dpm, the H2O/octanol worked out at 2.8 and the “octanol (dpm)” value is 14443 dpm. The water solubility in [4] (biotin as such) was 22 mg/100 ml. Moreover, the “water solubility (in words)” value in data set [4] (prior art) is on record as “poor water solubility”. Moreover, the egg-white injury entry in data set [5] (Sidenstricker and co-workers, 1942) was “can be defeated”. For the same compound, in data set [5] (following administration of biotin for a certain time), the “secondary effects of vitamin deficiency” value is recorded as “disappeared”. Moreover, the “effect in diseases coming from a deficiency in multiple carboxylase enzymes” value in data set [6] (multiple carboxylase enzymes) is on record as “effective”. For the same compound, the “effect in diseases caused by single carboxylase enzymes insufficiency” value in [6] (single carboxylase enzymes (propionyl-CoA, pyruvate, β-methyl-crotonyl carboxylase)) is “uneffective”. The “effect in seborrheal dermatitis in the newborn” value in data set [7] is given as “particularly effective”. In data set [8] (insulin-dependent diabetics), the blood glucose level entry was “lowers the blood glucose level”. In data set [8] (insulin-independent diabetes), the glucose tolerance entry is “increase glucose tolerance”, the post-prandial glucose level entry was “reduce the post-prandial glucose level” and the resistance to insulin result is given as “lower resistance to insulin”. Further, the “treatment and prevention of diabetic peripheral neuropathies” value in [9] is “advantageously utilized”. Besides, in [10], the activation of glucokinase entry is “able to activate”. In addition, the activation of insulin entry in data set [11] is “able to activate”.
